3 compounds from ChEMBL document CHEMBL1201862, “PubChem BioAssay data set” (2004) can be followed below.

Active and inactive are the calls of the source.

The target of series [1] is T1, Intestinal-type alkaline phosphatase (Mus musculus, UniProt P24822). The experiment in a line: PubChem AID 488785. The format is functional.
For series [2], the target named is T2, Intestinal-type alkaline phosphatase (Homo sapiens, UniProt P09923). Briefly: Dose Response confirmation of uHTS hits from a small molecule inhibitors of human intestinal alkaline phosphatase via a luminescent assay. [Related pubchem assays (depositor defined):AID2544, AID2574]. The format is functional.
Series [3] addresses T3, Alkaline phosphatase, tissue-nonspecific isozyme (Homo sapiens, UniProt P05186).
T3 sequence (P05186 whole entry): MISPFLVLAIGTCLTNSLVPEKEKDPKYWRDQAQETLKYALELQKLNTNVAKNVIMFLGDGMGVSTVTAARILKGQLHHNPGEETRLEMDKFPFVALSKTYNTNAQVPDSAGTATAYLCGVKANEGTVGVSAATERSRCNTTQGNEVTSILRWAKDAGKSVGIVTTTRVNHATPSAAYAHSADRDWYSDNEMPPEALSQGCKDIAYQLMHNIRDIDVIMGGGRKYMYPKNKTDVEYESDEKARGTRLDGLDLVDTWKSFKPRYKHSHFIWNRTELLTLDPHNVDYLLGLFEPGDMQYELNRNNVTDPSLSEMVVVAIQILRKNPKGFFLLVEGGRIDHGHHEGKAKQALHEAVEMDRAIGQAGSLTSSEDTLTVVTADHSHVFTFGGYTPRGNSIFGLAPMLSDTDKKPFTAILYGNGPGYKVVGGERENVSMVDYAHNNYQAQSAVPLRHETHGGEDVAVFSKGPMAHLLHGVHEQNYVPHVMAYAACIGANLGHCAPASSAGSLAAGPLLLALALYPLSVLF
The experiment in a line: TNAP enzyme inhibition by screening hits, dose response, selectivity assay for mouse IAP inhibitor project, biochemical, human TNAP, uHTS hits (AID 488906). The format is functional.

In series [4] the target is T2, Intestinal-type alkaline phosphatase. Briefly: inhibition of human intestinal alkaline phosphatase – biochemical, luminescent, uHTS hits, set 2, dose response (AID 488793). In kind it is functional.
Series [5] has as its target T4, RNA-binding protein pos-1 (Caenorhabditis elegans, UniProt G5EF15).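 Note: purified POS-1 fused to maltose binding protein made in E. coli; potency of compounds blocking POS-1 binding to fluorescent RNA.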
T4 sequence (G5EF15 whole entry): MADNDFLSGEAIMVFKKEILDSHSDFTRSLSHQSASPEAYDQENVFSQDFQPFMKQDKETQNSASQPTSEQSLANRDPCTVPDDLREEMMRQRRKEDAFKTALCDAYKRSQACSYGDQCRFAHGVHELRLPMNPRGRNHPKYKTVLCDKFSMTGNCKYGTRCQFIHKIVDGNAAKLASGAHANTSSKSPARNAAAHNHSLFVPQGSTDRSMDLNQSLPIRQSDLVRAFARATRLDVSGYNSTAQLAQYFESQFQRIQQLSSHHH
Briefly: disruptors of C. elegans POS-1 RNA interaction – biochemical, fluorescence polarization, dose response (AID 1964). (In general: In fluorescence polarisation assays a small probe gives low polarisation when free and higher when bound to something large.)

Series [6] deals with T3, Alkaline phosphatase, tissue-nonspecific isozyme. The experiment in a line: activation of tissue-nonspecific alkaline phosphatase – biochemical, TNAP isozyme, human IAP uHTS hits, selectivity assay for human IAP activator project, dose response (AID 488886).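 Note: potency of compounds raising TNAP activity as a selectivity check on IAP activators.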 In kind it is functional.
The target is the same in series [7]. Briefly: potency against alkaline phosphatase TNAP – biochemical, luminescent, dose response, SAR follow-up (AID 1056).
The target of series [8] is T2, Intestinal-type alkaline phosphatase. The experiment in a line: activation of human intestinal alkaline phosphatase – biochemical, dose response (AID 488873). In kind it is functional.
Series [9] has as its target Alkaline phosphatase, placental type (Homo sapiens, UniProt P05187). The experiment in a line: human placental alkaline phosphatase inhibition – biochemical, luminescence, confirmation (AID 1512). The format is functional.
Series [10] deals with T1, Intestinal-type alkaline phosphatase. Briefly: PubChem AID 488874. The format is functional.
Series [11] has as its target T5, Zinc finger protein mex-5 (Caenorhabditis elegans, UniProt Q9XUB2).
T5 sequence (Q9XUB2 whole entry): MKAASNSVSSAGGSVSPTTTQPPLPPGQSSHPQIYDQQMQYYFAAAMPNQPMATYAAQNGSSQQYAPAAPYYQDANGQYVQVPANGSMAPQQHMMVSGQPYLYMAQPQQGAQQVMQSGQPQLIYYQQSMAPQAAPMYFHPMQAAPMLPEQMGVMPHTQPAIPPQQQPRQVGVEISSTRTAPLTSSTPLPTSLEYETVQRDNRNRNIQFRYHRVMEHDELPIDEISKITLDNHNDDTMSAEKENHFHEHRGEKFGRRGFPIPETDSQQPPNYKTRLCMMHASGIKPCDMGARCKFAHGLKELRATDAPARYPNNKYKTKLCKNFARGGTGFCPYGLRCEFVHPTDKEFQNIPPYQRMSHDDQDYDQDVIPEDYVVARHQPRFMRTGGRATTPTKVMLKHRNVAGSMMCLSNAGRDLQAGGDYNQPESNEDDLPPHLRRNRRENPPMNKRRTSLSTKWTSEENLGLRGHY
Briefly: potency of MEX-5 RNA-binding blockers – biochemical, C. elegans, fluorescence polarization, dose response (AID 1960).

In a further series the target is Cytochrome P450 2C9 (Homo sapiens, UniProt P11712).
In the next series the target is Cytochrome P450 2D6 (Homo sapiens, UniProt P10635).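 Note: CYP2D6 member of a cytochrome P450 panel assay.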
The target in another series is Cytochrome P450 2C19 (Homo sapiens, UniProt P33261). The experiment in a line: Cytochrome panel assay with activity outcomes. Panel member name: p450-cyp2c19 Compounds with AC50 equal or less than 10 uM are considered active. In kind it is functional. The settings on record: read-out: AC50.
Series [12] deals with T2, Intestinal-type alkaline phosphatase. The experiment in a line: inhibition of human intestinal alkaline phosphatase – biochemical, dose response (AID 488876). The format is functional.
For series [13], the target named is T6, Calpain-2 catalytic subunit (Sus scrofa, UniProt P43367).
T6 sequence (P43367 whole entry): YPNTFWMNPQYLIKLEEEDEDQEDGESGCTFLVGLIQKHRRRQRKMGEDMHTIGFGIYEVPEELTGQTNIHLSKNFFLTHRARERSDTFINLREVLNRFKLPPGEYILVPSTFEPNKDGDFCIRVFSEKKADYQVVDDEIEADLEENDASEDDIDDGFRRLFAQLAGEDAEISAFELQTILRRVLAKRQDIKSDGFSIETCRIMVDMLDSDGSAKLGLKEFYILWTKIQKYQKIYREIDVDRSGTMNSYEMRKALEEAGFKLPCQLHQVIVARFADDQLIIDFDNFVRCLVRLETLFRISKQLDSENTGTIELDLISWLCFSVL
The experiment in a line: m-calpain protease blockers, concentration series – biochemical, fluorogenic peptide substrate, dose response (AID 1420). The format is functional.

A further series deals with Prothrombin (Homo sapiens, UniProt P00734). The experiment in a line: Thrombin 1536 HTS Dose Response Confirmation. [Related pubchem assays: 1046 (Thrombin 1536 HTS; hits were confirmed in this assay)]. The format is functional.

T1 sequence (P24822 whole entry): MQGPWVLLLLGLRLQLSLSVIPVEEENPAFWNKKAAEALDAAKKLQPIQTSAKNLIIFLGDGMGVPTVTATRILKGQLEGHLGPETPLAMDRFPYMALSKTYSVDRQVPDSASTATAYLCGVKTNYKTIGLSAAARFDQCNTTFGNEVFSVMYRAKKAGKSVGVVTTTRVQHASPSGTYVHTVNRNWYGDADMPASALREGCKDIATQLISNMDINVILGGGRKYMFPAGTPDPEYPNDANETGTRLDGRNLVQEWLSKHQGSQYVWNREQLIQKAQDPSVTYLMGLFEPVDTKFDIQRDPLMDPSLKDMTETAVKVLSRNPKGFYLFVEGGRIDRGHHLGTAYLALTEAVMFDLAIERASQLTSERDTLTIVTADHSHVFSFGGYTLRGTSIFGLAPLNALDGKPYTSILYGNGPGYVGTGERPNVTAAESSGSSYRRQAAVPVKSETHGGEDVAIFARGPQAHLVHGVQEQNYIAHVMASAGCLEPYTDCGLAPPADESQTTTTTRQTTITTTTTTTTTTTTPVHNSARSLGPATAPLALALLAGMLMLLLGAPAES
T2 sequence (P09923 whole entry): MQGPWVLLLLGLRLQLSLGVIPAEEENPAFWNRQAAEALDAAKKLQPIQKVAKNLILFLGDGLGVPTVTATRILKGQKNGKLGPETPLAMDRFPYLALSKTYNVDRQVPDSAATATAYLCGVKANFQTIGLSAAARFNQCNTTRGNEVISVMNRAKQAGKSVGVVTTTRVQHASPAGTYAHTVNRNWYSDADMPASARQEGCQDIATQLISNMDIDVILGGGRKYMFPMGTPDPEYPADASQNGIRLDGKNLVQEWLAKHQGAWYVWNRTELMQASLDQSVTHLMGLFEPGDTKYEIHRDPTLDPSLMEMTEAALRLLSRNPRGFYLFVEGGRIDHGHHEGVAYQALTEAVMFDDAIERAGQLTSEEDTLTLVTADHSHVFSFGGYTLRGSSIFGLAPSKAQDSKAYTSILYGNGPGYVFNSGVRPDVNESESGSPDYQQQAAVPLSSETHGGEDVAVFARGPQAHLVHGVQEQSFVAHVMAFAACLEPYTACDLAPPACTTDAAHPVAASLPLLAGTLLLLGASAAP
Chain of Cytochrome P450 2D6 (P10635 whole entry): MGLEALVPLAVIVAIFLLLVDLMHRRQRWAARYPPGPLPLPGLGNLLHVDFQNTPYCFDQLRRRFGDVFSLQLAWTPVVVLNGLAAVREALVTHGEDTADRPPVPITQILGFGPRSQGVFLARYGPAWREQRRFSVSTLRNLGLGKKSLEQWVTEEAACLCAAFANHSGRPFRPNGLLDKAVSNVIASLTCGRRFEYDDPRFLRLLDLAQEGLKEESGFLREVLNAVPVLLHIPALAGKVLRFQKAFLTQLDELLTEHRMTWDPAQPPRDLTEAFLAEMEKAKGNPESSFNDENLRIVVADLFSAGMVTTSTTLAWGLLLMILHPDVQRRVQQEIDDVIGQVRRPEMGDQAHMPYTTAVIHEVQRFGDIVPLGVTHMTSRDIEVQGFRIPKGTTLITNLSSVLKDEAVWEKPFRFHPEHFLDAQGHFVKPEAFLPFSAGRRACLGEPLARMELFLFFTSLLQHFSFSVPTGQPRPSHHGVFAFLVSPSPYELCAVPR
Chain of Cytochrome P450 2C19 (P33261 whole entry): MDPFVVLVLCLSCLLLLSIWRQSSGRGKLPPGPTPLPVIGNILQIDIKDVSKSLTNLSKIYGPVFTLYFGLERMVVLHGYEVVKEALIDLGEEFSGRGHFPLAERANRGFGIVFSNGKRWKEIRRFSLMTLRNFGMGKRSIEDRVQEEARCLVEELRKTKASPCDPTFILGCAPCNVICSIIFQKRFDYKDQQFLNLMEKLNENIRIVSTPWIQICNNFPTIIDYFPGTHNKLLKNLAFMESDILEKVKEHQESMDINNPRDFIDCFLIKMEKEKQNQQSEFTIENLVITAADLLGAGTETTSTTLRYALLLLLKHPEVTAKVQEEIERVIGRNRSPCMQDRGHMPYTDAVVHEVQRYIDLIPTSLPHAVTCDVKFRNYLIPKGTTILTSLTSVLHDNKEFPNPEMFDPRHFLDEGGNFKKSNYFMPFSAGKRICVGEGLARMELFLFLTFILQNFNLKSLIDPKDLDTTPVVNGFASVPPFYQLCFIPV
Chain of Alkaline phosphatase, placental type (P05187 whole entry): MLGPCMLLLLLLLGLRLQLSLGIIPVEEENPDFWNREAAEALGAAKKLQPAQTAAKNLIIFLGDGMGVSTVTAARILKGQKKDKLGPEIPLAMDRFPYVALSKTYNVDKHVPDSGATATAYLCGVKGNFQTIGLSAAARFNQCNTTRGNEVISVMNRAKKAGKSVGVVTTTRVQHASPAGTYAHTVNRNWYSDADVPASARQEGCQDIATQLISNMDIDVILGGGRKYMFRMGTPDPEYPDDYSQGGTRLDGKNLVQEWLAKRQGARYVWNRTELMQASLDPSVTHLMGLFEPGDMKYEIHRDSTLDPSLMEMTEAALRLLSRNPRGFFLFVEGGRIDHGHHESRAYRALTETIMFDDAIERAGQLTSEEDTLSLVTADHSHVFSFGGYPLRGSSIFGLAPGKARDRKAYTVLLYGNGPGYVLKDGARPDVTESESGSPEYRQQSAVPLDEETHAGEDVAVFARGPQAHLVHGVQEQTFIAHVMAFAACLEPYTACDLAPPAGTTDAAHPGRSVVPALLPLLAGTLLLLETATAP
Chain of Cytochrome P450 2C9 (P11712 whole entry): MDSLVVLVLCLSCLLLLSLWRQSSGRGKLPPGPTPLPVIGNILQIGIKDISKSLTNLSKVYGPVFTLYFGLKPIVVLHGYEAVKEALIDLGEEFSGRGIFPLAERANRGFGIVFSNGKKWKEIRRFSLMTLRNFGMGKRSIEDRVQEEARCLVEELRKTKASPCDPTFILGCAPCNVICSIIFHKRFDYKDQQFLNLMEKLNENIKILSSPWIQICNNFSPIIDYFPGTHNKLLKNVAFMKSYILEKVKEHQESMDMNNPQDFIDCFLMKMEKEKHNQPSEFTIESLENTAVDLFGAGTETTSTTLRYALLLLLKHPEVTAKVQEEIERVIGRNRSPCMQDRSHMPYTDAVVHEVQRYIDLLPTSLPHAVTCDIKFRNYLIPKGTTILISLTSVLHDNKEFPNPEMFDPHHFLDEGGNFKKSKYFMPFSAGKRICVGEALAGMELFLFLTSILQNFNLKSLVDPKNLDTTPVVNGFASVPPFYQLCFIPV

For `CNc1nnc(-c2cc3ccccc3oc2=O)s1`, the IC50 (usually the concentration that inhibits the measured activity by half) in [1] was 1.53 µM (active); in series [2], 1.76 µM (active); in series [3], 25.8 µM (active); in series [4] it was 1.29 µM (active); in [7], > 100 µM (inactive); in series [9], 5.81 µM (active). Also, the IC50 in [10] is 5.83 µM (active). For the same compound, the EC50 (as a rule, the concentration giving half of the maximal effect) was > 300 µM (not active) in series [5], > 100 µM (inactive) in [6], > 100 µM (inactive) in series [8] and > 300 µM (not active) in series [11].
Consider `CCCOc1ccc(/C=C/C(=O)Nc2ccc([N+](=O)[O-])cc2C)cc1`, for which the half-maximal activity concentration (AC50) (as a rule, the concentration giving half of the maximal activity seen) is 1.41 µM (inconclusive) at Cytochrome P450 2C9, “inconclusive” on Cytochrome P450 2D6 and 631 nM (inconclusive) on Cytochrome P450 2C19.
For the compound `COc1cccc(NC(S)=NCCC(c2ccccc2)c2ccccc2)c1`, the IC50 in series [1] was 5.12 µM (active); in series [3], 92.7 µM (active); in series [12], > 100 µM (inactive); in series [13] it was 3.72 µM (not active); at Prothrombin, > 50 µM (not active).
